From ChEMBL document CHEMBL3885881, “DrugMatrix”

Species: Rattus norvegicus
Experiment: DrugMatrix - Regimen: Daily Repeat
Type: toxicity, organism-based, Sprague-Dawley
Parameters: regimen Daily Repeat, gender Male, age 6-8 weeks
Conditions: in vivo, po, route oral GAVAGE, vehicle 100 % WATER; for ABSOLUTE BASOPHIL / ABSOLUTE EOSINOPHIL / ABSOLUTE LYMPHOCYTE / ABSOLUTE MONOCYTE / ABSOLUTE SEGMENTED NEUTROPHIL / BASOPHIL / EOSINOPHIL / ERYTHROCYTE COUNT / HEMATOCRIT / HEMOGLOBIN / LEUKOCYTE COUNT / LYMPHOCYTE / MEAN CORPUSCULAR HEMOGLOBIN / MEAN CORPUSCULAR HEMOGLOBIN CONCENTRATION / MEAN CORPUSCULAR VOLUME / MONOCYTE / NEUTROPHIL / NUCLEATED RED BLOOD CELLS / PLATELET COUNT: tissue Blood; for ALANINE AMINOTRANSFERASE / ALBUMIN / ALKALINE PHOSPHATASE / ASPARTATE AMINOTRANSFERASE / BLOOD UREA NITROGEN / CARBON DIOXIDE / CHLORIDE / CHOLESTEROL / CREATINE PHOSPHOKINASE / CREATININE / GLUCOSE / LACTATE DEHYDROGENASE / LIPASE / PHOSPHORUS / POTASSIUM / SODIUM / TOTAL BILIRUBIN / TOTAL PROTEIN / URIC ACID: tissue Plasma
[1] = 63 mg/kg, 120 h, dose level High, time 5 day
[2] = […], 72 h, dose 6.3 mg/Kg, dose level Low, time 3 day
[3] = […], 120 h, dose 6.3 mg/Kg, dose level Low, time 5 day

CNCCC=C1c2ccccc2CCc2ccccc21 [NORTRIPTYLINE]
ABSOLUTE BASOPHIL [1]: 0 CELLS/uL
ABSOLUTE EOSINOPHIL [1]: 0 CELLS/uL
ABSOLUTE LYMPHOCYTE [1]: 11759 CELLS/uL
ABSOLUTE MONOCYTE [1]: 53.67 CELLS/uL
ABSOLUTE SEGMENTED NEUTROPHIL [1]: 987.33 CELLS/uL
BASOPHIL [1]: 0%
EOSINOPHIL [1]: 0%
ERYTHROCYTE COUNT [1]: 5.77 x10E6/uL
HEMATOCRIT [1]: 35.97%
HEMOGLOBIN [1]: 14.67 G/DL
LEUKOCYTE COUNT [1]: 12.8 x10E3/uL
LYMPHOCYTE [1]: 91.67%
MEAN CORPUSCULAR HEMOGLOBIN [1]: 25.43 pg
MEAN CORPUSCULAR HEMOGLOBIN CONCENTRATION [1]: 40.77 G/DL
MEAN CORPUSCULAR VOLUME [1]: 62.33 fL
MONOCYTE [1]: 0.33%
NEUTROPHIL [1]: 8%
NUCLEATED RED BLOOD CELLS [1]: 0 /100WBC
PLATELET COUNT [1]: 1245.67 x10E3/uL
ALANINE AMINOTRANSFERASE [1]: 45.67 u/L
ALBUMIN [1]: 4.27 G/DL
ALKALINE PHOSPHATASE [1]: 460.33 u/L
ASPARTATE AMINOTRANSFERASE [1]: 77.33 u/L
BLOOD UREA NITROGEN [1]: 16.33 mg/dL
CARBON DIOXIDE [1]: 29 mmol/L
CHLORIDE [1]: 101.33 MEQ/L
CHOLESTEROL [1]: 78 mg/dL
CREATINE PHOSPHOKINASE [1]: 346.33 u/L
CREATININE [1]: 0.24 mg/dL
GLUCOSE [1]: 205 mg/dL
LACTATE DEHYDROGENASE [1]: 142 u/L
LIPASE [1]: 9.67 u/L
PHOSPHORUS [1]: 11.23 mg/dL
POTASSIUM [1]: 4.99 MEQ/L
SODIUM [1]: 144.43 MEQ/L
TOTAL BILIRUBIN [1]: 0.17 mg/dL
TOTAL PROTEIN [1]: 6.07 G/DL
URIC ACID [1]: 1.6 mg/dL
ABSOLUTE BASOPHIL [2]: 0 CELLS/uL
ABSOLUTE EOSINOPHIL [2]: 47.67 CELLS/uL
ABSOLUTE LYMPHOCYTE [2]: 13905.67 CELLS/uL
ABSOLUTE MONOCYTE [2]: 0 CELLS/uL
ABSOLUTE SEGMENTED NEUTROPHIL [2]: 1246.67 CELLS/uL
BASOPHIL [2]: 0%
EOSINOPHIL [2]: 0.33%
ERYTHROCYTE COUNT [2]: 5.4 x10E6/uL
HEMATOCRIT [2]: 34.5%
HEMOGLOBIN [2]: 13.8 G/DL
LEUKOCYTE COUNT [2]: 15.2 x10E3/uL
LYMPHOCYTE [2]: 90.67%
MEAN CORPUSCULAR HEMOGLOBIN [2]: 25.57 pg
MEAN CORPUSCULAR HEMOGLOBIN CONCENTRATION [2]: 39.97 G/DL
MEAN CORPUSCULAR VOLUME [2]: 63.87 fL
MONOCYTE [2]: 0%
NEUTROPHIL [2]: 9%
NUCLEATED RED BLOOD CELLS [2]: 0.33 /100WBC
PLATELET COUNT [2]: 1291.33 x10E3/uL
ALANINE AMINOTRANSFERASE [2]: 51.33 u/L
ALBUMIN [2]: 3.87 G/DL
ALKALINE PHOSPHATASE [2]: 385.33 u/L
ASPARTATE AMINOTRANSFERASE [2]: 86.33 u/L
BLOOD UREA NITROGEN [2]: 14.33 mg/dL
CARBON DIOXIDE [2]: 34 mmol/L
CHLORIDE [2]: 99.33 MEQ/L
CHOLESTEROL [2]: 71.33 mg/dL
CREATINE PHOSPHOKINASE [2]: 248 u/L
CREATININE [2]: 0.17 mg/dL
GLUCOSE [2]: 136.67 mg/dL
LACTATE DEHYDROGENASE [2]: 250.33 u/L
LIPASE [2]: 10 u/L
PHOSPHORUS [2]: 11.47 mg/dL
POTASSIUM [2]: 6.49 MEQ/L
SODIUM [2]: 143 MEQ/L
TOTAL BILIRUBIN [2]: 0.23 mg/dL
TOTAL PROTEIN [2]: 5.9 G/DL
URIC ACID [2]: 1.23 mg/dL
ABSOLUTE BASOPHIL [3]: 0 CELLS/uL
ABSOLUTE EOSINOPHIL [3]: 0 CELLS/uL
ABSOLUTE LYMPHOCYTE [3]: 14550 CELLS/uL
ABSOLUTE MONOCYTE [3]: 394 CELLS/uL
ABSOLUTE SEGMENTED NEUTROPHIL [3]: 2022.67 CELLS/uL
BASOPHIL [3]: 0%
EOSINOPHIL [3]: 0%
ERYTHROCYTE COUNT [3]: 5.68 x10E6/uL
HEMATOCRIT [3]: 35.47%
HEMOGLOBIN [3]: 14.63 G/DL
LEUKOCYTE COUNT [3]: 16.97 x10E3/uL
LYMPHOCYTE [3]: 85.67%
MEAN CORPUSCULAR HEMOGLOBIN [3]: 25.87 pg
MEAN CORPUSCULAR HEMOGLOBIN CONCENTRATION [3]: 41.2 G/DL
MEAN CORPUSCULAR VOLUME [3]: 62.7 fL
MONOCYTE [3]: 2.33%
NEUTROPHIL [3]: 12%
NUCLEATED RED BLOOD CELLS [3]: 0 /100WBC
PLATELET COUNT [3]: 1314.33 x10E3/uL
ALANINE AMINOTRANSFERASE [3]: 49.33 u/L
ALBUMIN [3]: 4.63 G/DL
ALKALINE PHOSPHATASE [3]: 430.67 u/L
ASPARTATE AMINOTRANSFERASE [3]: 87.33 u/L
BLOOD UREA NITROGEN [3]: 23 mg/dL
CARBON DIOXIDE [3]: 28 mmol/L
CHLORIDE [3]: 98.33 MEQ/L
CHOLESTEROL [3]: 70.33 mg/dL
CREATINE PHOSPHOKINASE [3]: 246 u/L
CREATININE [3]: 0.24 mg/dL
GLUCOSE [3]: 143.33 mg/dL
LACTATE DEHYDROGENASE [3]: 121 u/L
LIPASE [3]: 11 u/L
PHOSPHORUS [3]: 12.13 mg/dL
POTASSIUM [3]: 7.2 MEQ/L
SODIUM [3]: 141.23 MEQ/L
TOTAL BILIRUBIN [3]: 0.27 mg/dL
TOTAL PROTEIN [3]: 6.6 G/DL
URIC ACID [3]: 2.13 mg/dL
